Test results as given in patent US10588316B2 (priority 2015, dated 2020).

Experiments:
Fusarium graminearum = assay: microbe, parasite or virus in culture; format: cell-based
[1] = tested on: Fusarium graminearum and Fusarium asiaticum; assay: organism not typed; format: cell-based; conditions: tebuconazole 0.078 μg/mL; sensitive and fungicide-resistant strains

With Tebuconazole the “Median Effective Concentration (EC50) for Growth Inhibition” value (Fusarium graminearum; F.g carbendazim-resistant strains) was 0.101 mg/L, the “Median Effective Concentration (EC50) for Growth Inhibition” value (Fusarium graminearum; F.g phenamacril-resistant strains) was 0.085 mg/L and the “inhibitory effect on hyphal growth” value [1] was ~50%.
